Measured values as given in patent US20230035479A1, “METHODS AND COMPOSITIONS FOR REDUCING HAIR GREYING” (President and Fellows of Harvard College, priority 2019, published 2023).

Assays:
[1] = test system: sympathetic neurons; assay: c-FOS immunofluorescence in sympathetic ganglia; format: in vivo, mouse; details: after RTX injection
[2] = test system: melanocyte stem cells (MeSCs); assay: Apoptosis (active caspase-3, TUNEL) and DNA damage (gamma-H2AX) in MeSCs; format: in vivo, mouse
Experimental: Radiation causes DNA damage in MeSCs, leading to their differentiation within the niche.
Mouse skin samples were fixed using 4% paraformaldehyde (PFA) for 15 minutes at room temperature, washed 6 times with PBS, and immersed in 30% sucrose overnight at 4° C. Samples were then embedded in OCT (Sakura Finetek). 35˜50 μm sections were fixed in 4% paraformaldehyde (PFA) for 2 minutes and washed with PBS and PBST. Slides were then blocked using blocking buffer (5% donkey serum; 1% BSA, 2% cold water fish gelatin in 0.3% Triton in PBS) for 1 hour at room temperature, followed by staining with primary antibodies overnight at 4° C. and secondary antibody for 4 hours at room temperature. For sympathetic nerve density quantification, 90 μm sections were used. EdU was developed for 1 hour using the Click-It reaction according to manufacturer instructions (Thermo Fisher Scientific). TUNEL assay was performed according to manufacturer instructions (Roche). Fontana—Masson staining was performed according to manufacturer instructions (Market Lab ML7255). Antibodies used: TRP2 (Santa Cruz 10451, 1:800), tyrosine hydroxylase (rabbit, Millipore AB152, 1:1000 or sheep, Millipore AB1542, 1:150-1:300), c-Fos (Abcam, 190289, 1:1000), γ-H2AX (Cell Signaling, 9718, 1:400), phospho-histone H3 (rabbit, Cell Signaling Technology 3377S, 1:500), cleaved caspase 3 (rabbit, Cell Signaling Technology 9664S, 1:400), GFP (rabbit, Abcam ab290, 1:1000 or chicken, Ayes labs GFP-1010, 1:200), CD3 (eBioscience 14-0032-81, 1:800), CD11b (eBioscience 14-0112-81, 1:800), Phospho-CREB (Cell Signaling 9198, 1:800), MITF (Abcam ab12039, 1:400).

[3] = test system: melanocyte stem cells (MeSCs); assay: RNA-seq of FACS-purified MeSCs; format: in vivo, mouse; details: 12 hours after RTX injection
Experimental: Examination of marker gene expression for diverse skin cell types confirmed successful enrichment for MeSCs (FIG. 12D). To uncover major molecular changes, Gene Ontology (GO) enrichment analysis was conducted (FIG. 5B). A list of known genes associated with MeSC proliferation and differentiation was curated (FIG. 5C, FIG. 12E). Moreover, a list of genes previously denoted for cell cycle entry was utilized to assess if cell cycle regulators are altered at the transcriptional level (FIG. 12F). Some of these key changes were also verified by quantitative RT-PCR (qRT-PCR) (FIG. 12G). […]
MeSCs were purified using FACS from control and stressed mice skin samples at telogen based on their expression of CD117 [7], starting from a population that is negative for CD140a, CD45, Sca1, and CD34 [57]. […] Single-end sequencing reads were obtained using Illumina NextSeq 500 platform. Sequencing reads from RNA-seq libraries were trimmed using Trim Galore! […] Reads with alignment quality <Q30 were discarded. Gene expression levels were normalized and differential genes were calculated using DEseq2 package in R [60]. […] Transcripts Per Kilobase Million (TPM) calculated from count tables of Control MeSC samples were used to determine the expression levels of adrenergic receptors and glucocorticoid receptor shown in FIG. 2C.

[4] = test system: melanocyte stem cells (MeSCs); assay: MeSC proliferation, Phospho-Histone H3 immunofluorescence; details: within 24 hours after injection, full anagen
Experimental: To examine if stress alters MeSCs quiescence, RTX or norepinephrine was injected into mice that had entered full anagen, when MeSCs are normally quiescent.
For RTX injection, mice received injections of RTX (30-100 μg/kg) in the flank for 1-3 days as described previously [15, 16, 51-56]. […] Control mice were treated with the vehicle only. RTX injection was done either in full anagen (P31-P36) or in 1st telogen (P21). […] RTX was given at Anagen VI (P31˜P36).
All images were acquired using a Zeiss LSM 880 confocal microscope or Keyence microscope using ×20 or ×40 magnification lenses. Images are presented as Maximum Intensity Projection images. For colocalization analysis, images are presented as a single Z stack.

[5] = test system: melanocyte stem cells (MeSCs); assay: MeSC numbers in hair follicles, TRP2 immunofluorescence or membrane GFP tracing
Experimental: To understand how stress impacts the melanocyte lineage, RTX was injected into mice in anagen, when both MeSCs and differentiated melanocytes were present but located within distinct compartments—MeSCs were near to the bulge while differentiated melanocytes were at the hair bulb (FIG. 1E).
For RTX injection, mice received injections of RTX (30-100 μg/kg) in the flank for 1-3 days as described previously [15, 16, 51-56]. […] Control mice were treated with the vehicle only. RTX injection was done either in full anagen (P31-P36) or in 1st telogen (P21). […] Mice were treated for three days (P28-P30). […] RTX was given at Anagen VI (P31˜P36).

C=C(C)[C@]12C[C@@H](C)[C@@]34O[C@](Cc5ccccc5)(O[C@@H]1[C@@H]3C=C(COC(=O)Cc1ccc(O)c(OC)c1)C[C@]1(O)C(=O)C(C)=C[C@@H]41)O2 [RTX, resiniferatoxin]
c-FOS induction in cell bodies of sympathetic neurons [1]: Robust c-FOS induction | time at which c-FOS induction diminishes [1]: > 24 h | time of peak c-FOS induction [1]: 2 to 4 h | time to c-FOS induction [1]: ≤ 1 h | active caspase-3 or TUNEL signals in MeSCs ([2]; before MeSC depletion from the niche, 1 day after injection): failed to detect active caspase-3 or TUNEL signals | gamma-H2AX foci (DNA damage) in MeSCs ([2]; following injection): failure to detect gamma-H2AX foci | transcriptome changes in MeSCs [3]: upregulate proliferation and differentiation programs | MeSCs positive for Phospho-Histone H3 [4]: about 50% | MeSC loss ([5]; RTX injected during telogen): caused MeSC loss | time to complete loss of MeSCs from the bulge in many hair follicles ([5]; RTX injected in anagen): ≤ 5 days | TRP2+ MeSC number ([5]; RTX injected in anagen, entire skin): significantly reduced | GFP positive cells (traced MeSCs) ([5]; Tyr-CreER, Rosa-mT/mG mice, shortly after RTX injection (D1)): transient increase in GFP positive cells
